Test system: Plasmodium berghei
Experiment: Luciferase/luciferin-expressing antifolate-resistant parasites were used to infect a culture of HepG2 cells that were pre-incubated with compounds. Infected hepatocytes emit light due to the luciferase reaction. Assay results are presented as the percent inhibition of light emission compared to control. […]
Assay type: functional
Conditions: sporozoite; for IC90: read-out: LUCIFERASE INFECTION ASSAY - IC90

SMILES	IC90	further results
Cc1cc(NC(=O)COC(=O)CCCOc2ccc(Cl)cc2C)no1	> 10 µM	IC50 (FFLUC_HILL_SLOPE 1.69, FFLUC_R_SQUARED 0.223, read-out: LUCIFERASE INFECTION ASSAY - IC50): > 10 µM
Fc1ccccc1-c1cnn2c(NCCc3ccccn3)ccnc12	0.681 µM	IC50 (FFLUC_HILL_SLOPE 1.74, FFLUC_R_SQUARED 0.803, PBLUC_HILL_SLOPE 0.998, PBLUC_R_SQUARED 0.825, read-out: LUCIFERASE INFECTION ASSAY - IC50): 0.0754 µM
CCCCCCCCCCCc1n[nH]c(=S)n1-c1ccccc1C(F)(F)F	> 8.26 µM	IC50 (FFLUC_HILL_SLOPE 1.62, FFLUC_R_SQUARED 0.783, read-out: LUCIFERASE INFECTION ASSAY - IC50): > 8.26 µM
O=C(Nc1cccc(S(=O)(=O)NC2CC2)c1)c1ccccc1SCc1ccco1	4.79 µM	IC50 (FFLUC_HILL_SLOPE 1.74, FFLUC_R_SQUARED 0.575, HEPG2TOX_HILL_SLOPE 9.06, HEPG2TOX_R_SQUARED 0.765, PBLUC_HILL_SLOPE 112, PBLUC_R_SQUARED 0.186, read-out: LUCIFERASE INFECTION ASSAY - IC50): 4.7 µM
COCC(C)n1c(C)cc(C(=O)COC(=O)c2ccccc2SCC(=O)NC2CCCCCCC2)c1C (centres undefined)	5.25 µM	IC50 (FFLUC_HILL_SLOPE 1.67, FFLUC_R_SQUARED 0.346, PBLUC_HILL_SLOPE 7.4, PBLUC_R_SQUARED 0.408, read-out: LUCIFERASE INFECTION ASSAY - IC50): 3.9 µM
CN(C)c1ccc(-c2cc3cnc(Nc4cccc(Oc5ccccc5)c4)cc3n2C)cc1	6.91 µM	IC50 (FFLUC_HILL_SLOPE 1.74, FFLUC_R_SQUARED 0.698, HEPG2TOX_HILL_SLOPE 44.7, HEPG2TOX_R_SQUARED 0.888, PBLUC_HILL_SLOPE 2.41, PBLUC_R_SQUARED 0.586, read-out: LUCIFERASE INFECTION ASSAY - IC50): 2.77 µM
COCCCNc1nccn2c(-c3ccccc3OC)cnc12	5 µM	IC50 (FFLUC_HILL_SLOPE 1.63, FFLUC_R_SQUARED 0.685, HEPG2TOX_HILL_SLOPE 3.12, HEPG2TOX_R_SQUARED 0.689, PBLUC_HILL_SLOPE 1.97, PBLUC_R_SQUARED 0.68, read-out: LUCIFERASE INFECTION ASSAY - IC50): 1.64 µM
O=C1C(c2ccccc2)=C(c2ccccc2)C(c2ccccc2)=C1c1ccccc1	> 8.58 µM	IC50 (FFLUC_HILL_SLOPE 1.74, FFLUC_R_SQUARED 0.65, PBLUC_HILL_SLOPE 1.01, PBLUC_R_SQUARED 0.27, read-out: LUCIFERASE INFECTION ASSAY - IC50): 4.04 µM
O=C(Sc1ccc(Cl)cc1Cl)c1cccnc1SCCS(=O)(=O)c1ccc(C(F)(F)F)cn1	> 5.96 µM	IC50 (FFLUC_HILL_SLOPE 1.65, FFLUC_R_SQUARED 0.565, PBLUC_HILL_SLOPE 0.597, PBLUC_R_SQUARED 0.0951, read-out: LUCIFERASE INFECTION ASSAY - IC50): > 5.96 µM
CC(C)c1csc(NC(=O)c2cnn(-c3ccccc3F)c2C(F)(F)F)n1	2.32 µM	IC50 (FFLUC_HILL_SLOPE 1.67, FFLUC_R_SQUARED 0.227, HEPG2TOX_HILL_SLOPE 2.85, HEPG2TOX_R_SQUARED 0.664, PBLUC_HILL_SLOPE 0.553, PBLUC_R_SQUARED 0.884, read-out: LUCIFERASE INFECTION ASSAY - IC50): 0.0438 µM
Cc1csc(NC(=O)c2cc(C3CC3)n[nH]2)n1	> 10 µM	IC50 (FFLUC_HILL_SLOPE 1.65, FFLUC_R_SQUARED 0.902, read-out: LUCIFERASE INFECTION ASSAY - IC50): > 10 µM
Cc1cccc(C(=O)Nc2nnc(SCc3ccc(C#N)cc3)s2)n1	6.71 µM	IC50 (FFLUC_HILL_SLOPE 1.7, FFLUC_R_SQUARED 0.312, PBLUC_HILL_SLOPE 60.1, PBLUC_R_SQUARED 0.803, read-out: LUCIFERASE INFECTION ASSAY - IC50): 6.47 µM
CCc1cccc(Nc2nc3ccccc3s2)c1	> 10 µM	IC50 (FFLUC_HILL_SLOPE 1.67, FFLUC_R_SQUARED 0.624, read-out: LUCIFERASE INFECTION ASSAY - IC50): > 10 µM
CCc1ccc(NC(=O)CN(c2cccc3ccccc23)S(=O)(=O)c2ccc(C)c(C)c2)cc1	> 10 µM	IC50 (FFLUC_HILL_SLOPE 1.69, FFLUC_R_SQUARED 0.486, read-out: LUCIFERASE INFECTION ASSAY - IC50): > 10 µM
CCN(CC)S(=O)(=O)c1ccc(NC(=O)c2ccccc2Nc2cccc(C(F)(F)F)c2)cc1	> 10 µM	IC50 (FFLUC_HILL_SLOPE 1.74, FFLUC_R_SQUARED 0.823, read-out: LUCIFERASE INFECTION ASSAY - IC50): > 10 µM
O=[N+]([O-])c1ccc(Oc2c(Cl)cc(S(=O)(=O)Nc3cccc(C(F)(F)F)c3)cc2Cl)c(Cl)c1	> 6.09 µM	IC50 (FFLUC_HILL_SLOPE 1.65, FFLUC_R_SQUARED 0.655, read-out: LUCIFERASE INFECTION ASSAY - IC50): > 6.09 µM

SMILES	IC90	further results
Fc1cccc(Cl)c1CSc1ccc(Cl)c(Cl)c1	> 10.3 µM	IC50 (FFLUC_HILL_SLOPE 1.69, FFLUC_R_SQUARED 0.519, read-out: LUCIFERASE INFECTION ASSAY - IC50): > 10.3 µM
CN(C)c1ccc(C(c2cc(C(C)(C)C)c(O)c(C(C)(C)C)c2)N2CCN(CCO)CC2)cc1 (centres undefined)	> 10 µM	IC50 (FFLUC_HILL_SLOPE 1.7, FFLUC_R_SQUARED 0.646, PBLUC_HILL_SLOPE 0.736, PBLUC_R_SQUARED 0.152, read-out: LUCIFERASE INFECTION ASSAY - IC50): > 10 µM
COc1ccc(C(=O)Nc2nc3ccc(C)cn3c2C(=O)NC2CCCC2)cc1	8.02 µM	IC50 (FFLUC_HILL_SLOPE 1.65, FFLUC_R_SQUARED 0.455, HEPG2TOX_HILL_SLOPE 5.25, HEPG2TOX_R_SQUARED 0.908, PBLUC_HILL_SLOPE 10.6, PBLUC_R_SQUARED 0.223, read-out: LUCIFERASE INFECTION ASSAY - IC50): 6.52 µM
Cn1c(-c2c(-c3ccccc3)n[nH]c2-c2ccccc2O)nc2ccccc21	> 10 µM	IC50 (FFLUC_HILL_SLOPE 1.64, FFLUC_R_SQUARED 0.277, read-out: LUCIFERASE INFECTION ASSAY - IC50): > 10 µM
CN1/C(=C\C(=O)COC(=O)/C=C/c2cn(-c3ccccc3)nc2-c2ccc(F)cc2)C(C)(C)c2ccccc21	> 10 µM	IC50 (FFLUC_HILL_SLOPE 1.67, FFLUC_R_SQUARED 0.511, PBLUC_HILL_SLOPE 9.36, PBLUC_R_SQUARED 0.0694, read-out: LUCIFERASE INFECTION ASSAY - IC50): 9.4 µM
CC(C)CCOc1ccc(C(C2C(=O)CC(C)(C)CC2=O)C2C(=O)CC(C)(C)CC2=O)cc1	> 10 µM	IC50 (FFLUC_HILL_SLOPE 1.63, FFLUC_R_SQUARED 0.537, read-out: LUCIFERASE INFECTION ASSAY - IC50): > 10 µM
CCN(c1ccc(NC(=O)c2cnccn2)cc1)C(C)C	> 10 µM	IC50 (FFLUC_HILL_SLOPE 1.65, FFLUC_R_SQUARED 0.318, PBLUC_HILL_SLOPE 0.412, PBLUC_R_SQUARED 0.204, read-out: LUCIFERASE INFECTION ASSAY - IC50): > 10 µM
O=C(NCC#Cc1cccc(C(F)(F)F)c1)c1[nH]nc2ccccc12	> 10 µM	IC50 (FFLUC_HILL_SLOPE 1.72, FFLUC_R_SQUARED 0.47, read-out: LUCIFERASE INFECTION ASSAY - IC50): > 10 µM
CCCCCN1C(=O)/C(=N\n2c(-c3ccccc3F)cs/c2=N\C2CCCCC2)c2ccccc21	> 10 µM	IC50 (FFLUC_HILL_SLOPE 1.7, FFLUC_R_SQUARED 0.73, PBLUC_HILL_SLOPE 13.5, PBLUC_R_SQUARED 0.29, read-out: LUCIFERASE INFECTION ASSAY - IC50): 8.58 µM
O=C(Cn1ncc(Cl)c(Cl)c1=O)N1N=C(c2ccco2)CC1c1cccs1 (centres undefined)	> 10 µM	IC50 (FFLUC_HILL_SLOPE 1.67, FFLUC_R_SQUARED 0.501, PBLUC_HILL_SLOPE 2.36, PBLUC_R_SQUARED 0.757, read-out: LUCIFERASE INFECTION ASSAY - IC50): 4.46 µM
O=C(Nc1ccc(F)c(Cl)c1)c1[nH]nc2ccccc12	> 10 µM	IC50 (FFLUC_HILL_SLOPE 1.67, FFLUC_R_SQUARED 0.554, PBLUC_HILL_SLOPE 0.29, PBLUC_R_SQUARED 0.519, read-out: LUCIFERASE INFECTION ASSAY - IC50): 0.104 µM
O=C(OCc1ccc(Cl)cc1)c1cnc(NNc2ncc(C(=O)OCc3ccc(Cl)cc3)c(C(F)(F)F)n2)nc1C(F)(F)F	0.682 µM	IC50 (FFLUC_HILL_SLOPE 1.7, FFLUC_R_SQUARED 0.396, HEPG2TOX_HILL_SLOPE 1.81, HEPG2TOX_R_SQUARED 0.829, PBLUC_HILL_SLOPE 10.6, PBLUC_R_SQUARED 0.55, read-out: LUCIFERASE INFECTION ASSAY - IC50): 0.554 µM
COc1ccc(C2=NNC(=NCc3ccc4c(c3)OCO4)SC2)cc1F	> 10 µM	IC50 (FFLUC_HILL_SLOPE 1.69, FFLUC_R_SQUARED 0.437, PBLUC_HILL_SLOPE 4.83, PBLUC_R_SQUARED 0.0332, read-out: LUCIFERASE INFECTION ASSAY - IC50): 8.77 µM
CC1CC(=O)N(CC(=O)Nc2ccc(C(F)(F)F)cc2)N=C1c1ccc(Cl)cc1 (centres undefined)	> 10 µM	IC50 (FFLUC_HILL_SLOPE 1.68, FFLUC_R_SQUARED 0.0802, HEPG2TOX_HILL_SLOPE 1.48, HEPG2TOX_R_SQUARED 0.946, read-out: LUCIFERASE INFECTION ASSAY - IC50): > 10 µM
c1ccc(-c2cn3nc(N4CCN(Cc5cn6ccccc6n5)CC4)sc3n2)cc1	6.12 µM	IC50 (FFLUC_HILL_SLOPE 1.63, FFLUC_R_SQUARED 0.146, PBLUC_HILL_SLOPE 1.5, PBLUC_R_SQUARED 0.683, read-out: LUCIFERASE INFECTION ASSAY - IC50): 1.42 µM
COc1ccc(NC(=O)Cc2cccs2)cc1S(=O)(=O)Nc1ccc(Cl)cc1	> 10 µM	IC50 (FFLUC_HILL_SLOPE 1.73, FFLUC_R_SQUARED 0.168, HEPG2TOX_HILL_SLOPE 1.26, HEPG2TOX_R_SQUARED 0.964, PBLUC_HILL_SLOPE 12.3, PBLUC_R_SQUARED 0.183, read-out: LUCIFERASE INFECTION ASSAY - IC50): 9.75 µM
